Tests used:
Wild Type HIV-RT = Wild Type HIV-RT (Human immunodeficiency virus type 1 group M subtype B, UniProt P03366); assay: HIV Reverse Transcriptase Assay: Inhibitor IC50 Determination; assay type: biochemical; conditions: purified recombinant HIV-1 RT, poly(rA)/oligo(dT)16 template-primer, 37° C. for 30 min
Protocol: HIV Reverse Transcriptase Assay: Inhibitor IC50 Determination
HIV-1 RT assay was carried out in 96-well Millipore MultiScreen MADVNOB50 plates using purified recombinant enzyme and a poly(rA)/oligo(dT)16 template-primer in a total volume of 50 μL. The assay constituents were 50 mM Tris/HCl, 50 mM NaCl, 1 mM EDTA, 6 mM MgCl2, 5 μM dTTP, 0.15 μCi [^3H] dTTP, 5 μg/ml poly (rA) pre annealed to 2.5 μg/ml oligo (dT)16 and a range of inhibitor concentrations in a final concentration of 10% DMSO. Reactions were initiated by adding 4 nM HIV-1 RT and after incubation at 37° C. for 30 min, they were stopped by the addition of 50 μl ice cold 20% TCA and allowed to precipitate at 4° C. for 30 min. The precipitates were collected by applying vacuum to the plate and sequentially washing with 3×200 μl of 10% TCA and 2×200 μl 70% ethanol. Finally, the plates were dried and radioactivity counted in a Packard TopCounter after the addition of 25 μl scintillation fluid per well. IC50's were calculated by plotting % inhibition versus log10 inhibitor concentrations. (TABLE 2)

Structure (SMILES)	melting point	IC50 (Wild Type HIV-RT)
COc1ccc(Cc2n[nH]c(=O)n2C)c(F)c1Oc1cc(Cl)cc(C#N)c1 [Compound I-1, 3-chloro-5-[2-fluoro-6-methoxy-3-(4-methyl-5-oxo-4,5-dihydro-1H-[1,2,4]triazol-3-ylmethyl)-phenoxy]-benzonitrile]	219.1 to 220.1 °C	45.6 nM
COc1ccc(Cc2n[nH]c(=O)n2C)c(F)c1Oc1cc(C#N)cc(C(F)F)c1 [Compound I-2, 3-Difluoromethyl-5-[2-fluoro-6-methoxy-3-(4-methyl-5-oxo-4,5-dihydro-1H-[1,2,4]triazol-3-ylmethyl)-phenoxy]-benzonitrile]	–	12.9 nM

Source: patent US20060223874A1, “Heterocyclic reverse transcriptase inhibitors” (Roche Palo Alto LLC, priority 2005, published 2006)
